Assay results taken from patent US6472391B2, “Nitrogen-containing heterocyclic compounds” (Millennium Pharmaceuticals, Inc., priority 1996, dated 2002).

Key:
Wistar-Kyoto rats = assay: Mesangial proliferative glomerulonephritis model (anti-Thy-1.1 antibody OX-7); type: in vivo, rat; conditions: per glomerulus, 7th day after OX-7; twice a day for 7 days; normal 1.8 +/− 0.3, solvent-administered 8.7 +/− 0.4
Protocol: Test Example 5 Activity on a Mesangial Proliferative Glomerulonephritis Model
Anti-rat Thy-1.1 monoclonal antibody OX-7 (Cedarlane) was administered to male Wistar-Kyoto rats (Charles River Japan, 160 g, 6 animals/group) in an amount of 1.0 mg/kg by intravenous administration through the tail vein. A test compound was suspended in a 0.5% solution of methylcellulose and the resulting suspension was administered to each of the rats twice a day for a period of 7 days starting on the day before the administration of OX-7. On the 7th day after the OX-7 administration, when mesangial cell growth and extracellular matrix hypertrophy became prominent, the left kidney of each rat was extirpated, fixed with 20% buffered formalin for 6 hours and wrapped in paraffin, followed by slicing. The obtained pieces were subjected to immune tissue staining using antibody Pd10 (DAKO) against a proliferative cell nuclear antigen. After comparative staining with Methyl Green staining solution using diaminobenzidine as a color developer, the paraffin sections were enclosed. Half of the glomeruli in a kidney piece were observed and the number of the cells in one glomerulus which were positive to the proliferative cell nuclear antigen was calculated. The test for the significance of difference was carried out by the Wilcoxon test.

[1] = tested on: Vascular smooth muscle cells; assay: Growth inhibition against smooth muscle cells (PDGF-BB stimulated, XTT method); type: cell-based; conditions: Sus scrofa, 72 h, pig aorta cells, PDGF-BB 20 ng/ml, 3 days, read-out: Growth Inhibitory effect against smooth muscle cells IC50
Description: Test Example 2 Growth Inhibition Against Smooth Muscle Cells
Vascular smooth muscle cells were isolated from a pig aorta by explantation and used for the test. The cells were put into wells of a 96-well plate (8000 cells/well) and cultured in Dulbecco's modified Eagle's medium (DMEM; Nissui Pharmaceutical Co., Ltd.) containing 10% fetal bovine serum (FBS; Hyclone) for 4 days. Then, the cells were further cultured in DMEM containing 0.1% FBS for 3 days, and were synchronized at the cell growth stationary phase.
To each well was added DMEM containing 0.1% FBS and a test sample at a varied concentration, and the cell growth was brought about by PDGF-BB (SIGMA, final concentration: 20 ng/ml). After culturing for 3 days, the cell growth was measured using the cell growth assay kit (Boehringer Mannheim) according to the XTT method [J. Immunol. Methods, 142, 257-265 (1991)], and the cell growth score was calculated by the following equation.
P100: Absorbance by XTT reagent when stimulated by PDGF-BB
P0: Absorbance by XTT reagent when not stimulated by PDGF-BB
M: Absorbance by XTT reagent after addition of a sample when stimulated by PDGF-BB

human β-PDGF receptor = molecular target: T1, human β-PDGF receptor (Homo sapiens, UniProt P09619); assay: Inhibitory effect on phosphorylation of PDGF receptor; type: cell-based; conditions: CHO cells expressing human β-PDGF receptor
T1 construct: expressed in transfected cells; host or cells: Chinese hamster ovary cells (CHO)
T1 sequence (P09619 33-1106): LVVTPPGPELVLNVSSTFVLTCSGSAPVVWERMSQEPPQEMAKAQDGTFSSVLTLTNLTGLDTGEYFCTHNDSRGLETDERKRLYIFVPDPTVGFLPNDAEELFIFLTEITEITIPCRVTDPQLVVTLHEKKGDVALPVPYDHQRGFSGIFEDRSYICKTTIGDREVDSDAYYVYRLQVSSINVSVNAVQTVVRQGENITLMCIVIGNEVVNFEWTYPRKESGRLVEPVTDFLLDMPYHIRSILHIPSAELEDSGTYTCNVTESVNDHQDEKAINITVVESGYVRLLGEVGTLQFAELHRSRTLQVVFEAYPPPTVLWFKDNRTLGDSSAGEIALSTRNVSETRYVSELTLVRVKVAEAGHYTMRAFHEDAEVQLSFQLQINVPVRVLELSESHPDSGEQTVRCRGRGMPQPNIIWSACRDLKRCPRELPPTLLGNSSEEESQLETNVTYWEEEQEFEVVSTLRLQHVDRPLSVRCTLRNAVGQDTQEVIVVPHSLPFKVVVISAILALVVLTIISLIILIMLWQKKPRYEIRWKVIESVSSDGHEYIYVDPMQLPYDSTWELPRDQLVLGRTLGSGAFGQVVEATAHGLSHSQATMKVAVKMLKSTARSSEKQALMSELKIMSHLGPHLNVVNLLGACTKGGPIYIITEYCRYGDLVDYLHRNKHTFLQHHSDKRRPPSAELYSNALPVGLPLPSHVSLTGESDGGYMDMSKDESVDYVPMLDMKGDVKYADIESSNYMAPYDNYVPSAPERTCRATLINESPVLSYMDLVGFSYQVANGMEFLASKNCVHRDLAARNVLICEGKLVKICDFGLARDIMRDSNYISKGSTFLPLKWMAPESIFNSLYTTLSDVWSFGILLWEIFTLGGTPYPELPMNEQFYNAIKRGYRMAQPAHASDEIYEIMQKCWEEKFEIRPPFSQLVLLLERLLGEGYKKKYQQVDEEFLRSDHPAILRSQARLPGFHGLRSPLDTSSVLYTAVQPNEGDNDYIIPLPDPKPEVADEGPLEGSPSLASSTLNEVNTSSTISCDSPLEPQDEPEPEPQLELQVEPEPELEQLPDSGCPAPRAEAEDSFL
Protocol: Test Example 1 Inhibitory Effect on Phosphorylation of PDGF Receptor
The test was carried out according to the method described in the literature [Dah-Shuhn et al., J. Biol. Chem., 266, 413-418 (1991)], using Chinese hamster ovary cells (CHO) wherein human β-PDGF receptor cDNA was introduced and expressed.

Row | melting point [°C] | IC50 (human β-PDGF receptor) [µM] | SMILES | Number of cells which are positive to intranuclear antigen of proliferative cells (Wistar-Kyoto rats) | IC50 [1] [µM]
1 | 113 to 114 | – | COc1cc2ncnc(N3CCN(C(=S)NCc4ccc5c(c4)OCO5)CC3)c2cc1OC [Compound 208, 4-(6,7-dimethoxy-4-quinazolinyl)-N-(3,4-methylenedioxybenzyl)-1-piperazinethiocarboxamide] | 6.1 +/− 0.9 | –
2 | 140 to 143 | 0.12 | COc1cc2ncnc(N3CCN(C(=S)Nc4cccc([N+](=O)[O-])c4)CC3)c2cc1OC [Compound 79, 4-(6,7-Dimethoxy-4-quinazolinyl)-N-(3-nitrophenyl)-1-piperazinethiocarboxamide] | – | 0.14
